As a reminder, the Ki is the equilibrium dissociation constant of an inhibitor or competing ligand from its target.

Values joined by “and” are separate entries in the source; they are usually repeats but may differ in a detail not shown here. Equal entries are not always repeated. Structures can show the parent of a compound that is named as a salt. Where two headings read alike, the source gives them in different places.

We go through 18 molecules from paper PMC3582025 (European journal of pharmacology, 2012).

In assay [1] the target is serotonin transporter (SERT) (Homo sapiens, UniProt P31645). The assay can be described thus: cell-based. In kind it is cell-based.
Chain of serotonin transporter (SERT) (P31645 whole entry): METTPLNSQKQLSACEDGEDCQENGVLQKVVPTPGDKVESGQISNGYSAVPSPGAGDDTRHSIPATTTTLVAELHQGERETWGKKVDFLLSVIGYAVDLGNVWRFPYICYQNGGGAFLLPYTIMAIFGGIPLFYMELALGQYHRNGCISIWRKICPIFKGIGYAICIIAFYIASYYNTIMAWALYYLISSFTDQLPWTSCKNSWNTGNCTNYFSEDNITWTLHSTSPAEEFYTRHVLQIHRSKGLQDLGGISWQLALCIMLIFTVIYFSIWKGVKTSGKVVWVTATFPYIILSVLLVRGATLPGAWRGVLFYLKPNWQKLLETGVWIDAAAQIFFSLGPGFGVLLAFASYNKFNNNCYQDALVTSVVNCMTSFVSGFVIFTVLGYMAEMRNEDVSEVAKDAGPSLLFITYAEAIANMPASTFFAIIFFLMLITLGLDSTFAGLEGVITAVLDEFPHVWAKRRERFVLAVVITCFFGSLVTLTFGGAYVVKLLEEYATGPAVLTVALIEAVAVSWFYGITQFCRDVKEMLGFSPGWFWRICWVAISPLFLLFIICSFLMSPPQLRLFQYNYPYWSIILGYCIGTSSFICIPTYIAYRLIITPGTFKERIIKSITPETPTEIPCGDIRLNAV
The target in assay [2] is dopamine transporter (DAT) (Homo sapiens, UniProt Q01959). The experiment in a line: cell-based.
Chain of dopamine transporter (DAT) (Q01959 whole entry): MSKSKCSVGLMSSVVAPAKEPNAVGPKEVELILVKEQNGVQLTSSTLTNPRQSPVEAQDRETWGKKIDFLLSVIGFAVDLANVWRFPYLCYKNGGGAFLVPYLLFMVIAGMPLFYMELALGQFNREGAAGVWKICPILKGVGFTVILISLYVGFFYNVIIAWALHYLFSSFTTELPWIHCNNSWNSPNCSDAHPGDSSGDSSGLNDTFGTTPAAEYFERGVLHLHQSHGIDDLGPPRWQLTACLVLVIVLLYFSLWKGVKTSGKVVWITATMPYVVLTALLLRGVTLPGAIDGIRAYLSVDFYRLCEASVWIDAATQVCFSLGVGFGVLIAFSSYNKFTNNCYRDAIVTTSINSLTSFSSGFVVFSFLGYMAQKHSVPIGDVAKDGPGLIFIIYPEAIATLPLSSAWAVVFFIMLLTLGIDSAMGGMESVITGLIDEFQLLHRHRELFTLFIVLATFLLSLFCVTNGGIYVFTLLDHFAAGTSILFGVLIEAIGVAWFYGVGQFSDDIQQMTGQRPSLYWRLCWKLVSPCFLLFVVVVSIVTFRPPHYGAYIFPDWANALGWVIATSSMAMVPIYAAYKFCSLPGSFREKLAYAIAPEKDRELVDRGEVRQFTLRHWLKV
The target of assay [3] is norepinephrine transporter (NET) (Homo sapiens, UniProt P23975). The experiment in a line: cell-based. In kind it is cell-based.
Chain of norepinephrine transporter (NET) (P23975 whole entry): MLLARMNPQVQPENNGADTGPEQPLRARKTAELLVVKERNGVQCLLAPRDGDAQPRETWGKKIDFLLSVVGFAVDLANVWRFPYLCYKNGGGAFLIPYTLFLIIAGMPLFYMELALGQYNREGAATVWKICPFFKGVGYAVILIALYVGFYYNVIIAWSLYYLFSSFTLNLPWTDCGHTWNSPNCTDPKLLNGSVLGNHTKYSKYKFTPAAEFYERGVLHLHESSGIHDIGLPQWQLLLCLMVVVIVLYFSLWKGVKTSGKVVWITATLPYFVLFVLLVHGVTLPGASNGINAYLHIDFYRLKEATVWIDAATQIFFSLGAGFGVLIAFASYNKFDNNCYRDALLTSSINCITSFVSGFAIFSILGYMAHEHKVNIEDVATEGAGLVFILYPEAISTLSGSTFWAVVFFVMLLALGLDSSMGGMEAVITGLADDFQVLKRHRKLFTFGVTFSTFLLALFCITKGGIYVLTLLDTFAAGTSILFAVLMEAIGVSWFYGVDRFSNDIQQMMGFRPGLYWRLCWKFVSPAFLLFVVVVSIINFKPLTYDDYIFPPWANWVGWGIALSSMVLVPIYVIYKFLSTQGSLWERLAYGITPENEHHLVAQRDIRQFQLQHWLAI
The next assay deals with SERT (Homo sapiens, UniProt P31645). The experiment in a line: Radioligand binding assay.
Chain of SERT (P31645 whole entry): as the sequence (P31645 whole entry) above
In assay [4] the target is 5-HT2B serotonin receptors (Homo sapiens, UniProt P41595). The experiment in a line: Radioligand binding assay. The following applies: for Ki: 5-HT2B receptor affinity Ki.
Chain of 5-HT2B serotonin receptors (P41595 whole entry): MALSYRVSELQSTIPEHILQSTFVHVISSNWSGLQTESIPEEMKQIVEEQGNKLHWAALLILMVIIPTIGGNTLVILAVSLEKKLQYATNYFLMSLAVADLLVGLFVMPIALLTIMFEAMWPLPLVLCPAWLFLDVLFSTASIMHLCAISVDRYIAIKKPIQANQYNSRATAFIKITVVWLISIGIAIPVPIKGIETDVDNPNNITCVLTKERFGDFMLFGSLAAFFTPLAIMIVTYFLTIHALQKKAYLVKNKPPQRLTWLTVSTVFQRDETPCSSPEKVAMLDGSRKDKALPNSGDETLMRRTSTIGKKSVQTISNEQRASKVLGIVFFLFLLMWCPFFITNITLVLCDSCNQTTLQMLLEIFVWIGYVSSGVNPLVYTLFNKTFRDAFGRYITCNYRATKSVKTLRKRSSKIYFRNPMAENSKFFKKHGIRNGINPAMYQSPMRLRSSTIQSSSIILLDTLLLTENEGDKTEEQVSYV
The next assay addresses DAT (Homo sapiens, UniProt Q01959). The experiment in a line: Radioligand binding assay.
The target in assay [5] is human cloned 5-HT2B receptor (Homo sapiens, UniProt P41595). The experiment in a line: 5-HT2B functional assay, intracellular Ca++ mobilization. In kind it is cell-based. The following applies: HEK-T cells.
Chain of human cloned 5-HT2B receptor (P41595 whole entry): as above
For the next assay, the target named is T1, α2C adrenoceptors (Homo sapiens, UniProt P18825).
T1 sequence (P18825 1-462): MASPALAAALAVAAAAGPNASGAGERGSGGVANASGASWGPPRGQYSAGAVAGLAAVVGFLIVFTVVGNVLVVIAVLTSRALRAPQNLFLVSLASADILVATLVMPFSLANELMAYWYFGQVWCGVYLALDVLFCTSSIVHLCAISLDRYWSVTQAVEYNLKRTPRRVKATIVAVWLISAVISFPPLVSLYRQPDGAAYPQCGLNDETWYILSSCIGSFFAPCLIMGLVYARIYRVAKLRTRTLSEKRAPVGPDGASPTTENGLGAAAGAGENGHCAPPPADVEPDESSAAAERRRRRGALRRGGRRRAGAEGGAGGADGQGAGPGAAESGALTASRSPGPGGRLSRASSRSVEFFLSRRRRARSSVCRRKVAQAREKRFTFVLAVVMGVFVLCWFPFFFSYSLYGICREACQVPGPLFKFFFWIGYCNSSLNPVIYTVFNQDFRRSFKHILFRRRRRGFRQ
The experiment in a line: Radioligand binding assay. The settings on record: α2C adrenoceptor affinity Ki.

For assay [6], the system named is serotonin uptake in rat brain synaptosomes. The following applies: ref Martinez-Clemente et al (2011); cited from earlier work.
Assay [7] relates to dopamine uptake in rat brain synaptosomes. The following applies: ref Martinez-Clemente et al (2011); cited from earlier work.
In a further assay the target is NET (Homo sapiens, UniProt P23975). The assay can be described thus: Radioligand binding assay.
Chain of NET (P23975 whole entry): as the sequence (P23975 whole entry) above
Setting [8] is: SERT Ki, inhibition of transporter uptake activity.
Setting [9] is: DAT Ki, inhibition of transporter uptake activity.
Setting [10] is: DAT pKi (mean +/- S.E.M), inhibition of transporter uptake activity, N=3.
The mark [11] stands for this setting: NET Ki, inhibition of transporter uptake activity.
The mark [12] stands for this setting: SERT pKi (mean +/- S.E.M), inhibition of transporter uptake activity, N=3.
[13] abbreviates: inhibition of transporter uptake activity.
[14] abbreviates: NET pKi (mean +/- S.E.M), inhibition of transporter uptake activity, N=3.
[15] abbreviates: inhibition of transporter uptake activity, N=3.

Chain of DAT (Q01959 whole entry): as the sequence (Q01959 whole entry) above

As to `CCCC(C(=O)c1cccc2ccccc12)N1CCCC1.Cl` (stereo not drawn) [1-Naphyrone, 1-naphthalen-1-yl-2-pyrrolidin-1-ylpentan-1-one hydrochloride], the “SERT Ki” value in [1] is “submicromolar”. Further, the Ki in assay [1] (setting [8]) is 352 nM; in [2] (DAT Ki) it was < 100 nM; in assay [2] (setting [9]), 48 nM; in [2] (setting [10]), 47.9 nM; in assay [3] (setting [11]), 536 nM; on SERT it was < 100 nM. The “DAT Ki” value in assay [2] is listed as “submicromolar”. The “NET Ki” value in assay [3] was “submicromolar”. Also, the “5-HT2B receptor affinity Ki” value in [4] is recorded as “submicromolar”.

Regarding `CC(N)Cc1ccc2occc2c1.Cl` (stereo not drawn) [5-APB, 1-(benzofuran-5-yl)propan-2-amine hydrochloride], the Ki in [1] (setting [8]) is 811 nM; in assay [1] (setting [12]), 1660 nM; on DAT, < 100 nM; in assay [2] (setting [9]), 265 nM; in assay [2] (setting [10]), 501 nM; on α2C adrenoceptors it was < 100 nM. For the same molecule, the Ki in assay [3] (setting [11]) was 180 nM; in [3] (setting [14]) it was 468 nM; in assay [4], < 100 nM and 14 nM. Also, the “SERT Ki” value in assay [1] (setting [13]) is given as “submicromolar”. In addition, in assay [2] (setting [13]), the “DAT Ki” value is listed as “submicromolar”. In assay [5], the “5-HT2B agonist EC50” value is “nanomolar”. Moreover, the 5-HT2B agonist activity entry in assay [5] is reported as “potent full agonists”. Also, the “NET Ki” value in assay [3] (setting [13]) is recorded as “submicromolar”.

For the molecule `NC1Cc2ccc(I)cc2C1` (stereo not drawn) [5-iod-2-aminoindane, 5-iodo-2,3-dihydro-1H-inden-2-amine hydrochloride], the Ki in assay [1] (setting [8]) is 879 nM; in [1] (setting [12]) it was 1780 nM; in assay [2] (setting [9]), 1590 nM; in assay [2] (setting [10]) it was 2450 nM; in assay [3] (setting [11]) it was 311 nM; in assay [3] (setting [14]), 813 nM.

As for `CC(N)Cc1ccc2ccoc2c1.Cl` (stereo not drawn) [6-APB, 1-(benzofuran-6-yl)propan-2-amine hydrochloride], the Ki in [1] (setting [8]) is 2700 nM; in [1] (setting [12]) it was 5500 nM; in [2] (setting [9]), 150 nM; in assay [2] (setting [10]), 234 nM; at α2C adrenoceptors, 45 nM; in assay [3] (setting [11]) it was 117 nM. Also, the Ki in assay [3] (setting [14]) is 302 nM; in assay [4] it was 3.7 nM. Besides, in assay [5], the “5-HT2B agonist EC50” value was “nanomolar”. Further, in assay [5], the 5-HT2B agonist activity entry is given as “potent full agonists”.

Regarding `CN[C@@H](C)Cc1ccc2c(c1)OCO2` [(+)-MDMA, 3,4-methylenedioxymethamphetamine, reference compound], the Ki in [1] (SERT Ki) is 948 nM; in assay [1] (SERT pKi (mean +/- S.E.M)), 2750 nM; in assay [2] (DAT Ki), 897 nM; in [2] (DAT pKi (mean +/- S.E.M)), 2400 nM; in assay [3] (NET Ki), 398 nM; in assay [3] (NET pKi (mean +/- S.E.M)) it was 2000 nM.

`CN[C@H](C)Cc1ccc2c(c1)OCO2` [(−)-MDMA, 3,4-methylenedioxymethamphetamine, reference compound]: the Ki was 2310 nM in assay [1] (SERT Ki); 2420 nM in [2] (DAT Ki); 6170 nM in assay [2] (DAT pKi (mean +/- S.E.M)); 704 nM in assay [3] (NET Ki); 3160 nM in assay [3] (NET pKi (mean +/- S.E.M)).

For the molecule `CN(C)CCC=C1c2ccccc2CCc2ccccc21` [Amitriptyline, reference compound], the Ki in assay [2] (DAT Ki) was 4640 nM; in assay [2] (DAT pKi (mean +/- S.E.M)), 9770 nM.

As to `Cc1ccc(C(=O)C(C)NCc2ccccc2)cc1` (stereo not drawn) [Benzedrone, 2-(benzylamino)-1-(4-methylphenyl)propan-1-one hydrochloride], the Ki in assay [1] (setting [8]) was > 10000 nM; in assay [1] (setting [12]) it was 17800 nM; in [2] (setting [9]) it was 1410 nM and 1490 nM; in assay [2] (setting [10]) it was 2290 nM; in [3] (setting [11]), 1220 nM; in assay [3] (setting [14]) it was 3160 nM.

Regarding `c1ccc(C(c2ccccc2)C2CCCCN2)cc1` (stereo not drawn) [Desoxypipradrol, 2-benzhydrylpiperidine hydrochloride], the Ki in assay [1] (setting [8]) was > 10000 nM; in [1] (setting [12]), 53700 nM; in [2] (setting [9]) it was 32 nM; in [2] (setting [10]), 50.1 nM; in [3] (setting [11]), 213 nM; in [3] (setting [14]), 550 nM.

As for `CCC(C)CC(C)N` (stereo not drawn) [Dimethylamylamine, 4-methylhexan-2-amine hydrochloride], the Ki is > 10000 nM in assay [1] (setting [8]); 178000 nM in [1] (setting [12]); > 10000 nM in [2] (setting [9]); 18200 nM in [2] (setting [10]); 649 nM in assay [3] (setting [11]); 1700 nM in assay [3] (setting [14]).

For the molecule `CNC(C)C(=O)c1ccc(C)cc1.Cl` (stereo not drawn) [Mephedrone, 2-methylamino-1-(4-methylphenyl)propan-1-one hydrochloride], the Ki was 4940 nM in assay [1] (setting [8]); 10200 nM in assay [1] (setting [12]); 543 nM in assay [2] (setting [9]); 832 nM in [2] (setting [10]); 511 nM in [3] (setting [11]). In assay [6], the “concentration inhibiting serotonin uptake” value is recorded as “submicromolar”. The “concentration inhibiting dopamine uptake” value in assay [7] is “submicromolar”. In addition, the “5-HT2B receptor affinity Ki” value in assay [4] was “submicromolar”.

With `CNC(C)Cc1cccs1.Cl` (stereo not drawn) [Methiopropamine, methyl[(1-(2-thienyl)]propan-2-amine hydrochloride], the inhibition constant (Ki) in [1] (read-out: SERT Ki, inhibition of transporter uptake activity) was > 10000 nM; in [2] (read-out: DAT Ki, inhibition of transporter uptake activity) it was 577 nM; in assay [3] (read-out: NET Ki, inhibition of transporter uptake activity) it was 313 nM.

As to `CNC(C)Cc1cccs1.Cl` (stereo not drawn) [Methiopropamine], in assay [1] (setting [15]), the “SERT pKi (mean +/- S.E.M)” value came out at 4.14±0.07. The “DAT pKi (mean +/- S.E.M)” value in assay [2] (setting [15]) is given as 6.05±0.07. Moreover, in assay [3] (setting [15]), the “NET pKi (mean +/- S.E.M)” value is listed as 6.09±0.07.

Consider `CC(NCc1ccccc1)C(=O)c1ccc2c(c1)OCO2` (stereo not drawn) [Methylenedioxy-N-benzylcathinone, 2-(benzylamino)-1-(3,4-methylenedioxyphenyl)propan-1-one], for which the Ki is > 10000 nM in assay [1] (setting [8]); 29500 nM in assay [1] (setting [12]); 637 nM in assay [2] (setting [9]); 977 nM in [2] (setting [10]); 1630 nM in assay [3] (setting [11]); 4270 nM in assay [3] (setting [14]).

Regarding `NC1Cc2cc3c(cc2C1)OCO3` [Methylenedioxy-aminoindane, 6,7-dihydro-5H-cyclopenta[f][1,3]benzodioxol-6-amine], the Ki was > 10000 nM in assay [1] (SERT Ki); 11700 nM in assay [1] (SERT pKi (mean +/- S.E.M)); 4920 nM in [2] (setting [9]); 7590 nM in assay [2] (setting [10]); 641 nM in assay [3] (setting [11]); 1660 nM in assay [3] (setting [14]).

As to `Cl.NC1CCc2cc3c(cc2C1)OCO3` (stereo not drawn) [Methylenedioxy-aminotetralin, 5,6,7,8-tetrahydrobenzo[f][1,3]benzodioxol-6-amine hydrochloride], the Ki in assay [1] (setting [8]) was 1100 nM; in assay [1] (setting [12]), 2240 nM; in assay [2] (setting [9]), 4070 nM; in assay [2] (setting [10]) it was 6310 nM; in assay [3] (setting [11]), 894 nM; in [3] (setting [14]), 2290 nM. Moreover, in assay [4], the “5-HT2B receptor affinity Ki” value is reported as “submicromolar”.

For `CCNC(C)C(=O)c1ccc(C)cc1` (stereo not drawn) [Methylethcathinone, 2-ethylamino-1-(4-methylphenyl)propan-1-one hydrochloride], the Ki was 1800 nM in [1] (setting [8]); 3720 nM in [1] (setting [12]); 565 nM in [2] (setting [9]); 832 nM in assay [2] (setting [10]); 1670 nM in [3] (setting [11]); 4370 nM in assay [3] (setting [14]).

Regarding `CCCC(C(=O)c1ccc2ccccc2c1)N1CCCC1.Cl` (stereo not drawn) [Naphyrone, 1-naphthalen-2-yl-2-pyrrolidin-1-ylpentan-1-one hydrochloride], in assay [1], the “SERT Ki” value is “submicromolar”. For the same molecule, the Ki is 235 nM in [1] (SERT Ki); 53 nM in assay [2] (DAT Ki); 52.5 nM in assay [2] (DAT pKi (mean +/- S.E.M)); < 100 nM at NET; 200 nM in assay [3] (NET Ki); < 100 nM at SERT. The “DAT Ki” value in [2] is on record as “submicromolar”. Besides, the “NET Ki” value in assay [3] is recorded as “submicromolar”. For the same molecule, in assay [4], the “5-HT2B receptor affinity Ki” value is “submicromolar”.
